# According to PMC4824854, “Predictions of Cleavability of Calpain Proteolysis by Quantitative Structure-Activity Relationship Analysis Using Newly Determined Cleavage Sites and Catalytic Efficiencies of an Oligopeptide Array” (Molecular & Cellular Proteomics : MCP, 2016):
# “Also recorded” adds a separate entry of the source.
# T1: C1 (Merck Millipore #208712) (Sus scrofa, UniProt P35750)
# T1 construct: purchased Merck Millipore 208712
# T1 sequence (P35750 1-714): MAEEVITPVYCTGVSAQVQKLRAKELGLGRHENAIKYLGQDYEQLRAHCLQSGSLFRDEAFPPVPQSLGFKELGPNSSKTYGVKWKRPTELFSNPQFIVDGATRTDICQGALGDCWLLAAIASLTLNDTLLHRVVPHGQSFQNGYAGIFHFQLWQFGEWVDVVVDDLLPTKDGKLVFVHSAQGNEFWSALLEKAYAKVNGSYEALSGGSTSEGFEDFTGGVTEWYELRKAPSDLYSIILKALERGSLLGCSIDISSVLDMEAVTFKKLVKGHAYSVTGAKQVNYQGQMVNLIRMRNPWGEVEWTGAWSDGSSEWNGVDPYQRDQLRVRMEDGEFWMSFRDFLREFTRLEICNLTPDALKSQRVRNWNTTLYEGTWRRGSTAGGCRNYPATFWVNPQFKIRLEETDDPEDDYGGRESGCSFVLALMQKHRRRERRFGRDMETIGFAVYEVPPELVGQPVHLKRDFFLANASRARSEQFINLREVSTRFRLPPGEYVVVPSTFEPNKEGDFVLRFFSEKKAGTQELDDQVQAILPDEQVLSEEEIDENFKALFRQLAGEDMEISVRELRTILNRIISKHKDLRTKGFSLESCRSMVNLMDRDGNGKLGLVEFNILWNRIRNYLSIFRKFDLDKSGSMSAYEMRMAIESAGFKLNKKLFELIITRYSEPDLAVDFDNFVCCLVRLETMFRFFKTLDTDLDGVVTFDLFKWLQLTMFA
# T1 sequence (P04574 1-266 partner): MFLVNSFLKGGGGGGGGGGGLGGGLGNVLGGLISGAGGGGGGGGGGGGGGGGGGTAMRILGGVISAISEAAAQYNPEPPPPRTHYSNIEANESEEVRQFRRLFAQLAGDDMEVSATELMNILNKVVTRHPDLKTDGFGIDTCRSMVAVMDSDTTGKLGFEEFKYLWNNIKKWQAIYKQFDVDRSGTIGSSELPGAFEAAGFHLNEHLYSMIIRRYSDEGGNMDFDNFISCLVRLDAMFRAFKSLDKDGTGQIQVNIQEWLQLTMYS
# B1: horse myoglobin: horse myoglobin (Sigma-Aldrich, M0630; P68082) (protein, UniProt P68082 2-154, looked up)
# Myoglobin: GLSDGEWQQVLNVWGKVEADIAGHGQEVLIRLFTGHPETLEKFDKFKHLKTEAEMKASEDLKKHGTVVLTALGGILKKKGHHEAELKPLAQSHATKHKIPIKYLEFISDAIIHVLHSKHPGDFGADAQGAMTKALELFRNDIAAKYKELGFQG
# What was measured:
# calpains = details: cited from earlier work
# Excerpt: This activity is mainly achieved by an ∼10^4-fold increase in the kcat without a significant change in the Km ([39]), by an unknown mechanism. Although this amidase-like calpain activity may be involved in as-yet-unknown physiological functions, there has been no further report on it.
# [1] = biological target: T1, C1 (Merck Millipore #208712); test: Cleavage sites in whole proteins by N-terminal sequencing and MS/MS; type: biochemical; details: C1 0.9 pmol, 100 mM Tris-HCl pH 7.5, 5 mM CaCl2, 30 °C, 20 min; peptide sequencing and LC-MS/MS
# Description: Human heart troponin T2 (Merck 648484–100UGA, ca. 30 pmol) and horse myoglobin (Sigma-Aldrich, M0630, ca. 60 pmol) were digested with C1 (Merck Millipore #208712, 0.9 pmol) in 50 μl of 100 mM Tris-HCl (pH 7.5), 1 mM DTT, and 5 mM CaCl2 at 30 °C for 20 min. The digested samples were directly separated by SDS-PAGE, and the proteolyzed fragments were then blotted onto a PVDF membrane and subjected to peptide sequencing analysis (AproScience Inc., Tokushima, Japan). For sequence analysis by MS, the same digestion reactions were performed, terminated by adding a 3-fold volume of 7% TCA followed by incubation on ice for 30 min, spun (20,000 × g, 2 °C, 10 min), and the supernatant was collected. An aliquot of the soluble fraction was desalted and concentrated to a few μl using Zip-Tip C-18, and analyzed by Sciex 5600^+ with the Eksigent nanoLC system. The samples were analyzed in triplicate, the data were merged, and the peptide sequences were identified using ProteinPilot (Ver. 4.5) and Swiss-Prot DB (2015_08; 549,008 sequences; 195,692,017 aars) using the default parameters.
Molecule,kcat/Km for hydrolysis of the NH2 group at the C terminus (amidase-like activity) (calpains),calpain cleavage sites detected in the whole protein [1]
RPKPQQFFGLM-NH2 [substance P],10^6 M^−1s^−1,–
B1,–,Lys^51/Thr^52; also recorded: Gly^152/Phe^153
